Reference: ChEMBL document CHEMBL1155654, “Acylated flavonol glycosides from the flower of Inula britannica” (J Nat Prod, 2000)
≈ marks a conversion by molar mass, not a printed value. Calls of active or inactive are those of the source. No cut-off for these calls is given here.

What was measured:
[1] = system: HL-60; assay: Antioxidant activity in human HL60 cells assessed as inhibition of TPA-induced free radical formation; format: functional, cell-based
[2] = system: HL-60; assay: Antioxidant activity in human HL60 cells assessed as reduction of cytochrome-c […]; format: functional, cell-based
[3] = system: Radical scavenging activity; assay: Antioxidant activity assessed as DPPH free radical scavenging activity; format: functional

## COc1c(O[C@@H]2O[C@H](COC(=O)C(C)C)[C@@H](O)[C@H](O)[C@H]2O)cc2oc(-c3ccc(O)c(O)c3)c(O)c(=O)c2c1O
[1]
  Activity: Active
[2]
  IC50: 10.6 µg/mL (≈ 18.8 µM)
[3]
  IC50: 14.3 µg/mL (≈ 25.3 µM)

## COc1c(O[C@@H]2O[C@H](COC(=O)CC(C)C)[C@@H](O)[C@H](O)[C@H]2O)cc2oc(-c3ccc(O)c(O)c3)c(O)c(=O)c2c1O
[1]
  Activity: Active
[2]
  IC50: 11.7 µg/mL (≈ 20.2 µM)
[3]
  IC50: 14.3 µg/mL (≈ 24.7 µM)

## CCC(C)C(=O)OC[C@H]1O[C@@H](Oc2cc3oc(-c4ccc(O)c(O)c4)c(O)c(=O)c3c(O)c2OC)[C@H](O)[C@@H](O)[C@@H]1O (some centres undefined)
[1]
  Activity: Active
[2]
  IC50: 11.2 µg/mL (≈ 19.4 µM)
[3]
  IC50: 23.5 µg/mL (≈ 40.6 µM)

## O=c1c(O[C@@H]2O[C@H](CO)[C@@H](O)[C@H](O)[C@H]2O)c(-c2ccc(O)cc2)oc2cc(O)cc(O)c12 [ASTRAGALIN]
[2]
  IC50: > 50 µg/mL
[3]
  IC50: > 100 µg/mL

## COc1c(O)cc2oc(-c3ccc(O)c(O)c3)c(OC)c(=O)c2c1O [AXILLARIN]
[1]
  Activity: Active
[2]
  IC50: 2.9 µg/mL (≈ 8.37 µM)
[3]
  IC50: 12.4 µg/mL (≈ 35.8 µM)

## O=C(O)c1cc(O)c(O)c(O)c1 [GALLIC ACID]
[2]
  IC50: 3.2 µg/mL (≈ 18.8 µM)
[3]
  IC50: 3.7 µg/mL (≈ 21.7 µM)

## COc1c(O[C@@H]2O[C@H](CO)[C@@H](O)[C@H](O)[C@H]2O)cc2oc(-c3ccc(O)cc3)cc(=O)c2c1O [HISPIDULOSIDE]
[2]
  IC50: > 50 µg/mL
[3]
  IC50: > 100 µg/mL

## O=c1c(O)c(-c2ccc(O)cc2)oc2cc(O)cc(O)c12 [KAEMPFEROL]
[2]
  IC50: 10 µg/mL (≈ 34.9 µM)
[3]
  IC50: 74.4 µg/mL (≈ 260 µM)

## O=c1cc(-c2ccc(O)c(O)c2)oc2cc(O)cc(O)c12 [LUTEOLIN]
[1]
  Activity: Active
[2]
  IC50: 12.1 µg/mL (≈ 42.3 µM)
[3]
  IC50: 7.2 µg/mL (≈ 25.2 µM)

## COc1c(O)cc2oc(-c3ccc(O)c(O)c3)c(O)c(=O)c2c1O [PATULETIN]
[1]
  Activity: Active
[2]
  IC50: 10.1 µg/mL (≈ 30.4 µM)
[3]
  IC50: 9 µg/mL (≈ 27.1 µM)

## COc1c(O[C@@H]2O[C@H](CO)[C@@H](O)[C@H](O)[C@H]2O)cc2oc(-c3ccc(O)c(O)c3)c(O)c(=O)c2c1O [PATULITRIN]
[1]
  Activity: Active
[2]
  IC50: 8.1 µg/mL (≈ 16.4 µM)
[3]
  IC50: 10.3 µg/mL (≈ 20.8 µM)
